Assay results reported in ChEMBL document CHEMBL5046231, “Modulation of Naturally Occurring Linear Dipeptide Chirality to Reduce the Affinity for Oligopeptide Transporter 1 and Increase Intestinal Stability for an Enhanced Colon-Targeting Effect in the Treatment of Inflammatory Bowel Disease: An Application of trans-4-l-Hydroxyprolyl-l-serine” (J Med Chem, 2022).
Calls of active or inactive are those of the source. The rule behind the calls is not given here.

Legend:
Mus musculus [1] = assay: Anti-colitis activity against DSS-induced C57BL/6 mouse model of colitis assessed as fold change in colon length at 25 to 100 mg/kg, po administered via gavage twice a day for 10 days relative to SASP; type: functional; conditions: dose 25-100 mg/kg; time 10 day
[2] = AUC (0 to 6 hrs) in DSS-induced colitis C57BL/6 mouse model at 25 mg/kg, po measured up to 6 hrs by UPLC-MS/MS analysis; type: ADME, organism-based; set-up: route oral, dose 25 mg/kg, time <=6; conditions: in vivo
[3] = Chemical stability in 0.1 M HCl at pH 1.2 assessed as half life measured up to 12 hrs by HPLC analysis; type: physicochemical
Mus musculus [4] = assay: Anti-colitis activity against DSS-induced C57BL/6 mouse model of colitis assessed as fold change in body weight recovery at 25 to 100 mg/kg, po administered via gavage twice a day for 10 days relative to SASP; type: functional; conditions: dose 25-100 mg/kg; time 10 day
[5] = Tmax in healthy C57BL/6 mouse at 25 mg/kg, po measured up to 6 hrs by UPLC-MS/MS analysis; type: ADME, organism-based; conditions: in vivo
Mus musculus [6] = assay: Antiinflammatory activity in DSS-induced C57BL/6 mouse model of colitis assessed as decrease in TNF-alpha level 25 to 100 mg/kg, po administered via gavage twice a day for 10 days; type: functional, organism-based; conditions: dose 25-100 mg/kg, time 10.0 day
[7] = Toxicity in healthy C57BL/6 mouse assessed as histological changes in lung at 100 mg/kg, po administered for 10 days by H and E staining based assay; type: organism-based; conditions: in vivo, 240 h, time 10 day
[8] = Metabolic stability in healthy C57BL/6 mouse colon assessed as half life measured up to 12 hrs by HPLC analysis; type: ADME, tissue-based
[9] = Chemical stability in acetate buffer at pH 4.5 assessed as half life measured up to 12 hrs by HPLC analysis; type: physicochemical
[10] = Toxicity in healthy C57BL/6 mouse assessed as change in body weight at 100 mg/kg, po administered for 10 days; type: organism-based; conditions: in vivo, 240 h, time 10 day
[11] = Toxicity in healthy C57BL/6 mouse assessed as effect on colon length at 100 mg/kg, po administered for 10 days; type: organism-based; conditions: in vivo, 240 h, time 10 day
[12] = Chemical stability in phosphate buffer at pH 7.2 assessed as half life measured up to 12 hrs by HPLC analysis; type: physicochemical
Mus musculus [13] = assay: Antiinflammatory activity in DSS-induced C57BL/6 mouse model of colitis assessed as increase in IL-10 level 25 to 100 mg/kg, po administered via gavage twice a day for 10 days; type: functional, organism-based; conditions: dose 25-100 mg/kg, time 10.0 day

SMILES: O=C(O)[C@@H](CO)NC(=O)[C@H]1C[C@@H](O)CN1
- fold change (FC) (Mus musculus [1]): 1.2
- AUC [2]: 54.65 microM/L.hr
- half-life [3]: > 12 h
- fold change (FC) (Mus musculus [4]): 2.1
- Tmax [5]: 4 h
- Activity (Mus musculus [6]): Active
- Activity [7]: Non-Toxic
- half-life [8]: > 12 h
- half-life [9]: > 12 h
- Activity [10]: Non-Toxic
- Activity [11]: Non-Toxic
- half-life [12]: > 12 h
- Activity (Mus musculus [13]): Active
